Molecules are shown by their SMILES.

In this assay the target is T1, endogenous renin from human plasma (Homo sapiens, UniProt P00797).
T1 construct: rate of formation of angiotensin I from endogenous angiotensinogen and renin; from tissue; host or cells: pooled human plasma (EDTA)
T1 sequence (P00797 67-406): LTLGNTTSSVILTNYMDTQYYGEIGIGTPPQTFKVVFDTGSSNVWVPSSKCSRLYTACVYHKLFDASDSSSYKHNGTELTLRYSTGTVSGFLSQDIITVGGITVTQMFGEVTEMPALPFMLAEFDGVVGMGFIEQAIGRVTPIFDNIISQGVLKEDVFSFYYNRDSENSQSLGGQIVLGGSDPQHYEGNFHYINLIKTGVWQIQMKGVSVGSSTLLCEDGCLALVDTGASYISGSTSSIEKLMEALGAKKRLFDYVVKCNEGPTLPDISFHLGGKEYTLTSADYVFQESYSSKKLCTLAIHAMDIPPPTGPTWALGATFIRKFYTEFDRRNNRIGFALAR
Put plainly: In vitro test: inhibition of plasma renin activity (angiotensin I formation, radioimmunoassay). The assay is classed as biochemical. The settings on record: pooled human plasma, 37° C., pH 5.6. As for the experimental part: The plasma renin activity (PRA) is determined by incubation at 37° C. as the rate of formation of angiotensin I from endogenous angiotensinogen and renin. […] The angiotensin I formed per unit of time is determined by radioimmunoassay (Sorin Biomedica, Italy).
The percentage inhibition of the plasma renin activity is calculated by comparison […].
With `O=C(O)[C@@H](Cc1ccccc1)NC(=O)[C@@H](Cc1c[nH]cn1)NC(=O)[C@H](Cc1ccccc1)[C@@H](O)CN1C(=O)c2ccccc2C1=O` [Example 71, 4-(N-Phthalyl)amino-2-R,S-benzyl-3R,S-hydroxybutyryl-D-histidyl-D-phenylalanine], the “Inhibition at 0.05 mg/ml [%]” value turned out to be 92%. To `CC(C)CNC(=O)[C@@H](Cc1ccccc1)NC(=O)[C@@H](Cc1cnc[nH]1)NC(=O)C(Cc1ccccc1)C(O)CNC(=O)c1ccccc1C(=O)O` (stereo partly drawn) [Example 90, 4-[N-(2-Carboxy)benzoyl]amino-2-R,S-benzyl-3-R,S-hydroxybutyryl-D-histidyl-D-phenylalanine-(2-methyl) propylamide] belongs 63%.

For `CC(C)(C)OC(=O)N(Cc1ccccc1)CC(O)C(Cc1ccccc1)C(=O)N[C@H](Cc1cnc[nH]1)C(=O)N[C@H](Cc1ccccc1)C(=O)O` (stereo partly drawn) [Example 76, 4-(N-tert.-Butoxycarbonyl-N-benzyl)amino-2-R,S-benzyl-3-R,S-hydroxybutyryl-D-histidyl-D-phenylalanine], the “Inhibition at 0.05 mg/ml [%]” value is listed as 78%. To `CC(C)(C)OC(=O)N(Cc1ccccc1)C[C@H](O)[C@@H](Cc1ccccc1)C(=O)N[C@H](Cc1c[nH]cn1)C(=O)N[C@H](Cc1ccccc1)C(=O)N1CCOCC1` [Example 77, 4-(N-tert.-Butoxycarbonyl-N-benzyl)amino-2-R,S-benzyl-3-R,S-hydroxybutyryl-D-histidyl-D-phenylalanine-(N-morpholino)amide] belongs 100%; to `O=C(NC1CCCC1)[C@@H](Cc1ccccc1)NC(=O)[C@@H](Cc1c[nH]cn1)NC(=O)[C@H](Cc1ccccc1)[C@@H](O)CN1C(=O)c2ccccc2C1=O` [Example 72, 4-(N-Phthalyl)amino-2-R,S-benzyl-3R,S-hydroxybutyryl-D-histidyl-D-phenylalanine(cyclopentyl)amide], 100%.

In the case of `O=C(N[C@H](Cc1cnc[nH]1)C(=O)N[C@H](Cc1ccccc1)C(=O)OCc1ccccc1)C(Cc1ccccc1)C(O)CN1C(=O)c2ccccc2C1=O` (stereo partly drawn) [Example 70, 4-(N-Phthalyl)amino-2-R,S-benzyl-3R,S-hydroxybutyryl-D-histidyl-D-phenylalanine benzyl ester], the “Inhibition at 0.05 mg/ml [%]” value is on record as 100%. The result for `CC(C)(C)OC(=O)N(Cc1ccccc1)CC(O)C(Cc1ccccc1)C(=O)N[C@H](Cc1c[nH]cn1)C(=O)O` (stereo partly drawn) [Example 74, 4-(N-tert.-Butoxycarbonyl-N-benzyl)amino-2-R,S-benzyl-3-R,S-hydroxybutyryl-D-histidine] reads 93%. In the case of `CC(C)CNC(=O)[C@@H](Cc1ccccc1)NC(=O)[C@@H](Cc1c[nH]cn1)NC(=O)[C@H](Cc1ccccc1)[C@@H](O)CNC(=O)OC(C)(C)C` [Example 78, (N-tert.-Butoxycarbonyl)amino-2-R,S-benzyl-3-R,S-hydroxybutyryl-D-histidyl-D-phenylalanine-(2-methylpropyl)amide], the “Inhibition at 0.05 mg/ml [%]” value turned out to be 100%. To `COC(=O)[C@@H](Cc1ccccc1)NC(=O)[C@@H](Cc1cnc[nH]1)NC(=O)C(Cc1ccccc1)C(O)CN(Cc1ccccc1)C(=O)Cc1cccnc1` (stereo partly drawn) [Example 103, 4-[N-Benzyl-N-(3-pyridyl)acetyl]amino-2-R,S-benzyl-3-R,S-hydroxybutyryl-D-histidyl-D-phenylalanine methyl ester] belongs 88%.

Values taken from US5095006A, “Renin inhibitors having all retro-inverted peptide bonds” (Bayer Aktiengesellschaft, priority 1989, dated 1992).
